This is an account of results in patent US8394832B2, “Methods and compositions using immunomodulatory compounds for the treatment of immunodeficiency disorders” (Celgene Corporation, priority 2004, dated 2013).

SMILES strings stand for the structures.

Holding throughout (assay type): cell-based, human
One assay concerns CD80. Kind of assay: FACS analysis of CD80 expression on B cells. To be noted: normal B cells, 1 μM. As for the experimental part:
(§1) Human buffy coat (50 ml) was diluted with 50 ml sterile PBS (Ca^++, Mg^++ free), and mixed gently. A 25 ml aliquot of diluted buffy coat was transferred to each 50 ml centrifuge tube, and Histopaque-1077 (14 ml, #1077-1, Sigma) was gently layered into the bottom of the tube. The sample was centrifuged at 2,000 rpm for 30 min at room temperature. The interface containing mononuclear cells was transferred into 50 ml centrifuge tube, and washed once with PBS (1200 rpm, 5 min). The supernatant was discarded. Cell pellet was resuspended in Miltenyi buffer. Anti-CD19^+ microbeads were added to the suspension (10^7 cells in 80 μl of buffer, 20 μl antibody beads for 10^7 cells) and incubated for 15 min at 4° C. Cell pellet was washed once and resuspended in 1 ml Miltenyi buffer. The cell suspension was added to the magnetic column, washed with 10 ml Miltenyi buffer in the column. CD19^+ cells are released by 1 ml Miltenyi Buffer without magnetic field. CD19^+ cells were washed twice with RPMI complete medium. B cells (2×10^5) were plated in 96 well plate.
B cells were treated with 1 μM 1,3-dioxo-(2,6-dioxopiperidin-3-yl)-4-aminoisoindoline in presence of LPS; CD40 ligand and IL-4; or BAFF for 3 days. The suspension of B cells was washed by PBS once, and incubated with FITC conjugated anti human CD40, PE conjugated anti human CD80, or PerCP-Cy5.5 conjugated anti human HLA-DR for 30 min in the dark. […]
On the technique in general: A flow cytometer gives signals particle by particle.

For another assay, the system named is CD40. Description: FACS analysis of CD40 expression on B cells. As for the experimental part:
as §1, with “plate. […]” for “plate.”
In addition to the suppression of IL-4 induced proliferation, CD40+IL-4 induced HLA-DR expression was also examined. B cells were treated by 1,3-dioxo-(2,6-dioxopiperidin-3-yl)-4-aminoisoindoline with CD40L+IL-4 for 72 hours, and the cell surface expression markers CD40 and HLA-DR were measured by FACS. […]

The next assay has as its system HLA-DR. Kind of assay: FACS analysis of HLA-DR expression on B cells. As for the experimental part: as §1
B cells were treated with 1 μM 1,3-dioxo-(2,6-dioxopiperidin-3-yl)-4-aminoisoindoline in presence of LPS; CD40 ligand and IL-4; or BAFF for 3 days. The suspension of B cells was washed by PBS once, and incubated with FITC conjugated anti human CD40, PE conjugated anti human CD80, or PerCP-Cy5.5 conjugated anti human HLA-DR for 30 min in the dark. B cells were subject to FACS analysis using BD FACSAria (BD biosciences).
In addition to the suppression of IL-4 induced proliferation, CD40+IL-4 induced HLA-DR expression was also examined. B cells were treated by 1,3-dioxo-(2,6-dioxopiperidin-3-yl)-4-aminoisoindoline with CD40L+IL-4 for 72 hours, and the cell surface expression markers CD40 and HLA-DR were measured by FACS. […] In contrast, for the B cells that were treated with BAFF, 1,3-dioxo-(2,6-dioxopiperidin-3-yl)-4-aminoisoindoline increased CD40 expression by 60% and HLA-DR expression by 86% (FIG. 11F). The data are consistent with the previous observation that immunomodulatory compounds have no effect on CD40+IL-4 signaling.

In a further assay the test system is IL-6. Description: Measurement of cytokine IL-6 by Luminex in B cells. How it is done:
as §1
B cells were treated with 1,3-dioxo-(2,6-dioxopiperidin-3-yl)-4-aminoisoindoline at 60 μM, 6 μM, 0.6 μM, 0.06 μM, 0.006 μM and 0.0006 μM in presence of anti IgM, anti CD40 and IL-4 for 3 days. Supernatant (25 μl) was collected and incubated with 25 μl anti IL-6 beads for about 1 hour. […] The plate was read on Bio-Plex instrument (Bio-Rad).

The subject of the next assay is TLR 9. Kind of assay: TLR 9 expression by FACS array in B cells. As to conditions: 0.0006-60 μM, in combination with other stimuli, particularly IgM, 3 days (FIGS. 8A-8D). How it is done: as §1
B cells were plated in 96 well plate and treated with 1,3-dioxo-(2,6-dioxopiperidin-3-yl)-4-aminoisoindoline at concentrations of 60 μM, 6 μM, 0.6 μM, 0.06 μM, 0.006 μM and 0.0006 μM in presence of stimuli for 3 days. […] B cells were resuspended in 150 μl PBS containing 1% BSA and read in FACS array instrument (BD Bioscience).

In a further assay the test system is STAT6. Description: Western blotting of phospho-STAT6 in IL-4 stimulated CD-19 B cells. As to conditions: B cells pretreated 30 minutes, then 100 ng/ml IL-4 for 30 minutes (FIG. 11D). How it is done: CD-19 B cells (2×10^6/ml) were pretreated with 1,3-dioxo-(2,6-dioxopiperidin-3-yl)-4-aminoisoindoline at 10 μM and 1 μM for 30 minutes. IL-4 (100 ng/ml) was added to cell suspension for 30 minutes, and the cell pellet was washed once by PBS and lysed with 50 μl of the sample buffer. Cell lysates were heated at 100° C. for 5 minutes, and 20 μl of cell lysates were loaded to 4-20% Tris-glycine SDS-PAGE (Invitrogen). The transferred membrane was blotted with 1: 1000 anti-phopho STAT6 antibody (Cell signaling) for overnight at 4° C. prior to secondary HRP conjugated anti rabbit antibody. The signal of the membrane was developed by ECL kit, following the manufacturer's instructions.
Because activation of STAT6 is important in IL-4 induced IgE and IgG1 class switching, whether immunomodulatory compounds could inhibit phosphorylation of STAT6 was investigated. B cells were pretreated with 1,3-dioxo-(2,6-dioxopiperidin-3-yl)-4-aminoisoindoline for 30 minutes, then stimulated with 100 ng/ml of IL-4 for 30 minutes. The activation of STAT6 was assessed by anti-phospho-STAT6 (Tyr 641).

The mark [1] stands for this setting: B cells treated with BAFF (FIG. 11F).

For `Nc1cccc2c1C(=O)N(C1CCC(=O)NC1=O)C2=O` (centres unmarked) [1,3-dioxo-(2,6-dioxopiperidin-3-yl)-4-aminoisoindoline], the “number of B cells expressing CD80” value with CD80 (CD40 ligand and IL-4, 3 days (FIG. 1B)) is given as “increased”. In addition, the CD80 expression result in the assay on CD80 (in the presence of CD40 ligand and IL-4, 3 days (FIG. 1A)) is listed as “increased”. Moreover, the “increase of CD40 expression” value with CD40 (setting [1]) was 60%. Moreover, in the assay on CD40 (B cells treated with BAFF or LPS, 1 μM, 3 days (FIG. 2A)), the CD40 expression result was “upregulated”. Besides, the “increase of HLA-DR expression” value in the assay on HLA-DR (setting [1]) amounted to 86%. Moreover, the HLA-DR expression entry in the assay on HLA-DR (B cells treated with BAFF or LPS, 1 μM, 3 days (FIG. 2B)) is given as “upregulated”. In the assay with HLA-DR (B cells with CD40L+IL-4 for 72 hours (FIG. 11E)), the “CD40+IL-4 induced HLA-DR expression” value is “no enhancement”. For the same molecule, the IL-6 expression entry in the assay with IL-6 (compound alone (FIG. 5A)) is “did not enhance”; in the assay with IL-6 (in combination with anti IgM, anti CD40 and IL-4, 3 days, 0.0006-60 μM (FIG. 5B)), “enhanced”. Besides, the “TLR 9 expression” value in the assay with TLR 9 is “increase”. Moreover, the “phosphorylation of STAT6 (Tyr 641)” value with STAT6 is “block phosphorylation of STAT6”.
